The test system of the series is RAW264.7 macrophagocytes.

Protocol: Besides, we contrastively explored cellular uptakes of BBI, PDP, sBBI and sBBI&PDP into a macrophage cell line RAW264.7 and HCC cell line Hepa1-6. The fluorescence was derived from fluorescein isothiocyanate (FITC), FITC was linked to the amino-terminal of sBBI, and the sBBI with FITC was then combined with PDP to form FITC-sBBI&PDP.
Hepa1-6 cells are seeded in 6-well plates at an appropriate density, approximately 200,000 cells per
well. After cell attachment, 1 mL of drug was labeled with 10 µL of FITC (100:1). Keep away from
light, and co-incubate the drug with the cells for 10 minutes. Digest cells according to normal
procedures. After centrifugation, wash 2-3 times with PBS and resuspend in 150-200 µL PBS for
FACS detection. FITC was incubated with drugs for 30 minutes. Plate with 6 cm confocal laser
dishes, 100,000 cells per well. After cell attachment, FITC-labeled drug was added. Drugs were co-
cultured with cells for 6 h. Cells were washed twice with PBS and cellular uptake observed under a
confocal laser fluorescence microscope.

As to CHEHEKFEQR-(PEG3)-nyskptdrqyhfrr [PDP], the Cellular uptake result is listed as “neither BBI nor PDP peptide showed cellular uptakes”.
With “KFERQKILDSQEQLEHRERSLQT -(Hle)-RDIQRML-(2-Nal)-PC [BBI]” the entry was “neither BBI nor PDP peptide showed cellular uptakes”.

These data come from publication PMC10283047, “Targeting β-catenin and PD-L1 simultaneously by a racemic supramolecular peptide for the potent immunotherapy of hepatocellular carcinoma” (Theranostics, 2023).
